# Key:
# rabbit LECs = settings: mechanism unknown; cited from earlier work
# [1] = test system: lens epithelial cells from bovine anterior capsules; assay: Outgrowth of lens epithelial cells from bovine anterior capsules on treated slides; type: cell-based
# Experimental: The tension ring is then further treated with glutaraldehyde (GA), rinsed of excess GA, and then treated with an MTX-protein conjugate. […] Control tension rings are treated with unconjugated protein (no MTX).
# Outgrowth was followed for six days.
# [2] = test system: epithelial cells of the lens capsule; settings: solution instilled into the anterior chamber after lens removal; cited from earlier work
# [3] = treated slides, outgrowth followed for six days, first evaluation
molecule,measurement,setting,value
"O=C(O[C@@H]1Cc2c(O)cc(O)cc2O[C@@H]1c1cc(O)c(O)c(O)c1)c1cc(O)c(O)c(O)c1 [(−)-epigallocatechin-3-gallate (EGCG), (−)-epigallocatechin-3-gallate]",inhibition of proliferation of rabbit LECs,rabbit LECs,inhibit the proliferation
"covalent conjugate of MTX: covalent conjugate of MTX with bovine serum albumin prepared using ECDI, attached via glutaraldehyde to the ethylenediamine plasma-treated surface",outgrowth of lens epithelial cells,"[1]; slides rinsed and evaluated again, second set of lens capsules",inhibited outgrowth
same,outgrowth of lens epithelial cells,[1]; third set of cells on re-used slides,"somewhat inhibited, but not completely"
same,outgrowth of lens epithelial cells,[1]; [3],inhibited cell outgrowth
bovine serum albumin [protein (alone)],outgrowth of lens epithelial cells,[1]; [3],allowed good outgrowth
"CN(Cc1cnc2nc(N)nc(N)c2n1)c1ccc(C(=O)N[C@@H](CCC(=O)O)C(=O)O)cc1 [MTX (alone), methotrexate]",outgrowth of lens epithelial cells,[1]; subsequent evaluations after the first evaluation period,not during subsequent evaluations
same,outgrowth of lens epithelial cells,[1]; [3],inhibited outgrowth
same,destroying epithelial cells of the lens capsule which remain after cataract surgery,[2],effective
